In assay [1] the test system is bovine tubulin. The experiment in a line: In vitro tubulin polymerization assay (turbidity at 340 nm). The note with it: 10 μM compound, 30 minute data point, vs 1% DMSO control. Format: biochemical. The method, boiled down:
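Bovine tubulin (97%, <3% MAPs) at 3 mg/ml final in G-PEM pH 7 with 1 mM GTP and 5% glycerol, added cold to compound wells at 37° C (1% DMSO final). A340 read each minute for 30 min; percent inhibition from 30-min point versus DMSO control.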

Assay [2] deals with A431, human epidermoid carcinoma cells. The experiment in a line: Cell cycle analysis (FACS), mitotic arrest in G2/M. Format: cell-based. Conditions: read-out: FACS Assay: concentration required to achieve inhibition in FACS assay. As to the method: The cell cycle analysis was performed as follows. Cancer cells (A431, human epidennoid carcinoma cells) were maintained in culture in D-MEM media with 10% FBS and 1 mg/ml glutamate. Prior to experiment, cells were plated onto 6-well plates for a final density of 500,000 cells/well at the time of treatment. Cells were treated with the compounds of the invention at a concentration of about 0.01 to 1 μM final concentrations (final 0.1% DMSO) for 24 hours, then trypsinized, collected, rinsed in PBS (phosphate buffered saline), and fixed in 70% cold ethanol overnight at 4° C. The cells were then rinsed with PBS, resuspended in PBS with 0.2% Tween, RNAse was added (final 1 μg/ml), cells were incubated at 37° C. for 15 min, followed by addition of Propidium Iodide (final 50 μg/ml), and a 30 minute incubation at room temperature. DNA ploidy was analyzed using flow cytometers (Epics Excel, Beckman-Coulter, or Guava PCA-96, Guava Technologies) and mitotic arrest characterized by massive accumulation of cells in the G2/M phase of cell cycle.
Cancer cells (A431, human epidermoid cells) were maintained in culture in D-MEM media with 10% FBS and 1 mg/ml glutamate. Prior to experiment, cells are plated onto 6-well plates for a final density of 500,000 cells/well at the time of treatment. Cells were treated with compounds at 0.01-1 μM final concentrations (final […] DMS 0) for 24 hours, then trypsinized, collected, rinsed in PBS (phosphate buffered saline), and fixed in 70% cold ethanol overnight at 4° C. Cells were then rinsed with PBS, resuspended in PBS with 0.2% Tween, RNAse was added (final 1 μg/ml), cells were incubated at 37° C. for 15 min, followed by addition of Propidium Iodide (final 50 μg/ml), and a 30 minute incubation at room temperature. DNA ploidy was analyzed using cell sorters (Epics Excel, Beckman-Coulter, or Guava PCA-96, Guava Technologies) and mitotic arrest characterized by massive accumulation of cells in the G2/M phase of cell cycle.
On the technique in general: Flow cytometry measures light scatter and fluorescence of single cells or particles in a stream.

Where two headings read alike, the source gives them in different places.

Consider `CS(=O)(=O)c1ccc(-c2nnc(-c3cccnc3NCc3ccc(F)cc3)[nH]2)cc1` [Compound 108, (4-Fluoro-benzyl)-{3-[5-(4-methanesulfonyl-phenyl)-4H-[1,2,4]triazol-3-yl]-pyridin-2-yl}-amine], for which, in assay [1], the “Tubulin Assay: percent inhibition at 10 μM based on 30 minute data” value (shortened to “Tubulin Assay: percent inhibition”) amounted to 91%. Further, the minimal effective concentration in assay [2] (Homo sapiens, A-431, 24 h) is 0.1 µM.

As to `COc1ccc(CNc2ncccc2-c2nnc(Nc3ccc(OC)c(OC)c3)o2)cc1OC` [Compound 166, (3,4-Dimethoxy-benzyl)-{3-[5-(3,4-dimethoxy-phenylamino)-[1,3,4]oxadiazol-2-yl]-pyridin-2-yl}-amine], the “Tubulin Assay: percent inhibition” value in assay [1] is on record as 53%. Moreover, the minimal effective concentration in assay [2] (Homo sapiens, A-431, 24 h) was found to be 1 µM.

As to `c1cnc(NCc2ccc3c(c2)CCO3)c(-c2nnc(Nc3ccc4c(c3)OCCO4)o2)c1` [Compound 199, {3-[5-(2,3-Dihydro-benzo[1,4]dioxin-6-ylamino)-[1,3,4]oxadiazol-2-yl]-pyridin-2-yl}-(2,3-dihydro-benzofuran-5-ylmethyl)-amine], the “Tubulin Assay: percent inhibition” value in assay [1] was found to be 88%. The minimal effective concentration in assay [2] (Homo sapiens, A-431, 24 h) turned out to be 0.1 µM.

Consider `Fc1ccc(CNc2ncccc2-c2nnc(Nc3ccc4c(c3)OCCO4)o2)cc1F` [Compound 161, (3,4-Difluoro-benzyl)-{3-[5-(2,3-dihydro-benzo[1,4]dioxin-6-ylamino)-[1,3,4]oxadiazol-2-yl]-pyridin-2-yl}-amine], for which, in assay [1], the “Tubulin Assay: percent inhibition” value was determined as 82%. For the same compound, the minimal effective concentration in assay [2] (Homo sapiens, A-431, 24 h) came to 0.1 µM.

Take `Fc1ccc(CNc2ncccc2-c2nnc(Nc3ccc4c(c3)OCO4)o2)cc1F` [Compound 155, {3-[5-(Benzo[1,3]dioxol-5-ylamino)-[1,3,4]oxadiazol-2-yl]-pyridin-2-yl}-(3,4-difluoro-benzyl)-amine]: the “Tubulin Assay: percent inhibition” value in assay [1] turned out to be 91%. Moreover, the minimal effective concentration in assay [2] (Homo sapiens, A-431, 24 h) came out at 1 µM.

Take `Nc1ccccc1-c1nnc(Nc2ccc3c(c2)OCCO3)o1` [Compound 241, [5-(2-Amino-phenyl)-[1,3,4]oxadiazol-2-yl]-(2,3-dihydro-benzo[1,4]dioxin-6-yl)-amine]: in assay [1], the “Tubulin Assay: percent inhibition” value is on record as 75%. Also, the minimal effective concentration in assay [2] (Homo sapiens, A-431, 24 h) was 1 µM.

As for `c1coc(CNc2ncccc2-c2nnc(Nc3ccc4c(c3)OCCO4)o2)c1` [Compound 164, {3-[5-(2,3-Dihydro-benzo[1,4]dioxin-6-ylamino)-[1,3,4]oxadiazol-2-yl]-pyridin-2-yl}-furan-2-ylmethyl-amine], in assay [1], the “Tubulin Assay: percent inhibition” value came out at 73%. In assay [2] (24 hours), the minimal effective concentration stood at 0.1 µM.

On to `COc1cc(Nc2ncccc2-c2nnc(NCC3CCCO3)[nH]2)cc(OC)c1` (stereo not shown) [Compound 56, (3,5-Dimethoxy-phenyl)-(3-{5-[(tetrahydro-furan-2-ylmethyl)-amino]-4H-[1,2,4]triazol-3-yl}-pyridin-2-yl)-amine], for which, in assay [1], the “Tubulin Assay: percent inhibition” value is recorded as 97%. Moreover, the minimal effective concentration in assay [2] (Homo sapiens, A-431, 24 h) amounted to 1 µM.

Regarding `COc1cccc(Nc2nnc(-c3ccccc3NCc3ccc4[nH]ncc4c3)[nH]2)c1` [Compound 123, (5-{2-[(1H-Indazol-5-ylmethyl)-amino]-phenyl}-4H-[1,2,4]triazol-3-yl)-(3-methoxy-phenyl)-amine], in assay [1], the “Tubulin Assay: percent inhibition” value was found to be 75%. In addition, in assay [2] (Homo sapiens, A-431, 24 h), the minimal effective concentration stood at 1 µM.

On to `c1coc(CNc2ncccc2-c2nnc(Nc3ccc4c(c3)OCO4)o2)c1` [Compound 163, {3-[5-(Benzo[1,3]dioxol-5-ylamino)-[1,3,4]oxadiazol-2-yl]-pyridin-2-yl}-furan-2-ylmethyl-amine], for which, in assay [1], the “Tubulin Assay: percent inhibition” value was 90%. For the same compound, the minimal effective concentration in assay [2] (Homo sapiens, A-431, 24 h) was 1 µM.

Take `c1ccc(-c2nnc(Nc3ccc4c(c3)OCCO4)o2)c(NCc2ccc3c(c2)OCO3)c1` [Compound 218, (5-{2-[(Benzo[1,3]dioxol-5-ylmethyl)-amino]-phenyl}-[1,3,4]oxadiazol-2-yl)-(2,3-dihydro-benzo[1,4]dioxin-6-yl)-amine]: in assay [1], the “Tubulin Assay: percent inhibition” value was 74%. Moreover, in assay [2] (Homo sapiens, A-431, 24 h), the minimal effective concentration amounted to 0.1 µM.

Source of the values: patent US20090048301A1 (IMCLONE SYSTEMS INCORPORATED, priority 2003, published 2009).
